System: apyrase
Test: In vitro apyrase assay (screen for apyrase inhibitors, phosphate release read at 630 nm)
Assay type: biochemical
Settings: inhibitor conc at 1 mM; 1 hr at room temperature; rounded average of two assay results
Method: Method 1: In Vitro Apyrase Assay: Apyrase inhibitors useful as enhancers of pesticidal activity are assessed using an in vitro assay. The method of Windsor, Bio Techniques 33:1024-1030 (November 2002) was used as follows: Screen for Apyrase Inhibitors - 96 well plates were used for the assay: (Greiner bio-one: REF-655901-96 well, PS, F-bottom, Clear, Non-binding) Buffers: • Reaction Buffer: 60 mM Hepes; 3 mM MgCl2, 3 mM CaCl2 and 3 mM ATP (pH 6.5) • Development Buffer A: 2% aqueous ammonium molybdate • Development Buffer B: 11% ascorbic acid in 37.5% TCA in water • Stop buffer C: 2% trisodium citrate in 2% acetic acid solution in water • Add 100 μl of reaction buffer to each well. • Add […] (control) or inhibitor/compound or compounds such as […] or orthovanadate to each well. […] A blank cell indicates either <10% observed inhibition or a large difference between repetitions. In certain examples, the lack of observed inhibition is due to a lack of solubility of the compound under assay conditions, rather than a lack of apyrase inhibitory activity. Roux compound 15 inhibited apyrase in this assay at about 60%.

% Inhibition of Apyrase [%]	SMILES
14	CCCCCC(=O)N/N=C(\C)c1cccc2ccccc12 [I-16, (E)-N′-(1-(naphthalen-1-yl)ethylidene)hexanehydrazide]
10	C/C(=N\NC(=O)c1cccc([N+](=O)[O-])c1)c1ccc2ccccc2c1 [I-29, (E)-N′-(1-(naphthalen-2-yl)ethylidene)-3-nitrobenzohydrazide]
13	C/C(=N\NC(=O)c1ccccc1C)c1ccccn1 [I-18, (E)-2-methyl-N′-(1-(pyridin-2-yl)ethylidene)benzohydrazide]
11	CCc1ccc(/C=N/NC(=O)c2ccccc2)cc1 [I-25, (E)-N′-(4-ethylbenzylidene)benzohydrazide]
10	CCCC(CCC)=NNC(=O)c1ccccc1F [I-30, 2-fluoro-N′-(heptan-4-ylidene)benzohydrazide]
11	CC(C)(C)/C=N/NC(=O)c1ccccc1 [I-26, (E)-N′-(2,2-dimethylpropylidene)benzohydrazide]
10	C/C(=N\NC(=O)c1cccc(Cl)c1)c1ccc2ccccc2c1 [I-31, (E)-3-chloro-N′-(1-(naphthalen-2-yl)ethylidene)benzohydrazide]
55	C/C(=N\NC(=O)c1ccccc1)c1ccc2ccccc2c1 [I-213, (E)-N′-(1-(naphthalen-2-yl)ethylidene)benzohydrazide]
13	CCC/C=N/NC(=O)c1ccccc1 [I-19, (E)-N′-butylidenebenzohydrazide]
12	COc1ccc2cc(/C(C)=N/NC(=O)c3ccc(OC)c(OC)c3)ccc2c1 [I-20, (E)-3,4-dimethoxy-N′-(1-(6-methoxynaphthalen-2-yl)ethylidene)benzohydrazide]
68	C/C(=N\NC(=O)c1cc(C)cs1)c1ccc2ccccc2c1 [I-207, (E)-4-methyl-N′-(1-(naphthalen-2-yl)ethylidene)thiophene-2-carbohydrazide]
40	C/C(=N\NC(=O)c1ccnc(C)n1)c1ccc2ccccc2c1 [I-219, (E)-2-methyl-N′-(1-(naphthalen-2-yl)ethylidene)pyrimidine-4-carbohydrazide]
12	C/C(=N/NC(=O)c1ccc2nc[nH]c2c1)c1ccc2ccccc2c1 [I-21, (Z)-N′-(1-(naphthalen-2-yl)ethylidene)-1H-benzo[d]imidazole-6-carbohydrazide]
44	C/C(=N\NC(=O)c1csc(C)c1)c1ccc2ccccc2c1 [I-216, (E)-5-methyl-N′-(1-(naphthalen-2-yl)ethylidene)thiophene-3-carbohydrazidee]
20	C/C(=N/NC(=O)c1cccc(C)c1)c1ccc2ccccc2c1 [I-7, (Z)-3-methyl-N′-(1-(naphthalen-2-yl)ethylidene)benzohydrazide]
12	C/C(=N\NC(=O)c1ccccc1)c1ccc(-c2ccccc2)cc1 [I-22, (E)-N′-(1-([1,1′-biphenyl]-4-yl)ethylidene)benzohydrazide]
15	C/C(=N\NC(=O)c1cc(C)n[nH]1)c1ccc2ccccc2c1 [I-15, (E)-3-methyl-N′-(1-(naphthalen-2-yl)ethylidene)-1H-pyrazole-5-carbohydrazide]
68	C/C(=N\NC(=O)c1cnnc(C)c1)c1ccc2ccccc2c1 [I-205, (E)-6-methyl-N′-(1-(naphthalen-2-yl)ethylidene)pyridazine-4-carbohydrazide]
14	C/C(=N/NC(=O)c1ccccc1)C(=O)O [I-17, (Z)-2-(2-benzoylhydrazineylidene)propanoic acid]
17	C/C(=N\NC(=O)c1cccc2ccccc12)c1ccc(C)c(C)c1 [I-11, (E)-N′-(1-(3,4-dimethylphenyl)ethylidene)-1-naphthohydrazide]
23	C/C(=N\NC(=O)c1cccc(S(=O)(=O)N(C)C)c1)c1ccc2ccccc2c1 [I-221, (E)-N,N-dimethyl-3-(2-(1-(naphthalen-2-yl)ethylidene)hydrazine-1-carbonyl)benzenesulfonamide]
60	C/C(=N\NC(=O)c1ccc(NS(=O)(=O)c2cccs2)cc1)c1ccc2ccccc2c1 [I-2, (E)-N-(4-(2-(1-(naphthalen-2-yl)ethylidene)hydrazine-1-carbonyl)phenyl)thiophene-2-sulfonamide]
10	C/C(=N/NC(=O)c1cccc(C)c1)C1CC1 [I-32, (Z)-N′-(1-cyclopropylethylidene)-3-methylbenzohydrazide]

% Inhibition of Apyrase [%]	SMILES
46	C/C(=N\NC(=O)c1cccc(S(=O)(=O)N2CCOCC2)c1)c1ccc2ccccc2c1 [I-3, (E)-3-(morpholinosulfonyl)-N′-(1-(naphthalen-2-yl)ethylidene)benzohydrazide]
63	C/C(=N\NC(=O)c1cccc(C(F)(F)F)c1)c1ccc2ccccc2c1 [I-210, (E)-N′-(1-(naphthalen-2-yl)ethylidene)-3-(trifluoromethyl)benzohydrazide]
12	C/C(=N\NC(N)=O)c1cccc2ccccc12 [I-23, (E)-2-(1-(naphthalen-1-yl)ethylidene)hydrazine-1-carboxamide]
74	CC(=NNC(=O)c1cccc(C)c1)c1ccc2c(c1)CCCC2 [I-204, (E)-3-methyl-N′-(1-(5,6,7,8-tetrahydronapthalen-2-yl)ethylidene)benzohydrazide]
16	C/C(=N\NC(=O)c1n[nH]c2c1CCCC2)c1ccc2ccccc2c1 [I-14, (E)-N′-(1-(naphthalen-2-yl)ethylidene)-4,5,6,7-tetrahydro-1H-indazole-3-carbohydrazide]
10	Cc1ccc(/C=N/NC(=O)c2ccccc2)cc1 [I-33, (E)-N′-(4-methylbenzylidene)benzohydrazide]
10	C/C(=N\NC(=O)c1cccc(C)c1)c1ccc2c(c1)CCC2 [I-224, (E)-N′-(1-(2,3-dihydro-1H-inden-5-yl)ethylidene)-3-methylbenzohydrazide]
25	C/C(=N\NC(=O)c1cccc(CO)c1)c1ccc2ccccc2c1 [I-220, (E)-3-(hydroxymethyl)-N′-(1-(naphthalen-2-yl)ethylidene)benzohydrazide]
12	CNS(=O)(=O)c1cccc(C(=O)N/N=C(\C)c2ccc3ccccc3c2)c1 [I-222, (E)-N-methyl-3-(2-(1-(naphthalen-2-yl)ethylidene)hydrazine-1-carbonyl)benzenesulfonamide]
10	C/C(=N\NC(=O)c1ccc(Cl)cc1Cl)c1ccccn1 [I-27, (E)-2,4-dichloro-N′-(1-(pyridin-2-yl)ethylidene)benzohydrazide]
22	CCCCCCCCC/C(C)=N\NC(=O)c1ccccc1 [I-5, (Z)-N′-(undecan-2-ylidene)benzohydrazide]
16	C/C(=N\NC(=O)c1ccccc1F)c1ccncc1 [I-12, (E)-2-fluoro-N′-(1-(pyridin-4-yl)ethylidene)benzohydrazide]
56	C/C(=N\NC(=O)c1ccc(C)s1)c1ccc2ccccc2c1 [I-212, (E)-5-methyl-N′-(1-(naphthalen-2-yl)ethylidene)thiophene-2-carbohydrazide]
68	C/C(=N\NC(=O)c1ccc(C)c(C)c1)c1ccc2ccccc2c1 [I-206, (E)-3,4-dimethyl-N′-(1-(naphthalen-2-yl)ethylidene)benzohydrazide]
42	CCc1cccc(C(=O)N/N=C(\C)c2ccc3ccccc3c2)c1 [I-218, (E)-3-ethyl-N′-(1-(naphthalen-2-yl)ethylidene)benzohydrazide]
65	C/C(=N\NC(=O)c1cccc(N(C)C)c1)c1ccc2ccccc2c1 [I-209, (E)-3-(dimethylamino)-N′-(1-(naphthalen-2-yl)ethylidene)benzohydrazide]
19	C/C(=N\NC(=O)c1ccc(-n2cnnn2)cc1)c1ccc2ccccc2c1 [I-8, (E)-N′-(1-(naphthalen-2-yl)ethylidene)-4-(1H-tetrazol-1-yl)benzohydrazide]
11	CCCCCC(=O)N/N=C(/C)c1ccc2ccccc2c1 [I-24, (Z)-N′-(1-(naphthalen-2-yl)ethylidene)hexanehydrazide]
6	C/C(=N\NC(=O)c1nccc(C)n1)c1ccc2ccccc2c1 [I-225, (E)-4-methyl-N′-(1-(naphthalen-2-yl)ethylidene)pyrimidine-2-carbohydrazide]
1	C/C(=N\NC(=O)c1cncc(C)c1)c1ccc2ccccc2c1 [I-226, (E)-5-methyl-N′-(1-(naphthalen-2-yl)ethylidene)nicotinohydrazide]
22	C/C(=N\NC(=O)c1cncc(Br)c1)c1ccc2ccccc2c1 [I-6, (E)-5-bromo-N′-(1-(naphthalen-2-yl)ethylidene)nicotinohydrazide]
17	C/C(=N\NC(=O)c1ccc2c(c1)OCO2)c1cccnc1 [I-10, (E)-N′-(1-(pyridin-3-yl)ethylidene)benzo[d][1,3]dioxole-5-carbohydrazide]
66	C/C(=N\NC(=O)c1ccc(NS(C)(=O)=O)cc1)c1ccc2ccccc2c1 [I-208, (E)-N-(4-(2-(1-(naphthalen-2-yl)ethylidene)hydrazine-1-carbonyl)phenyl)methanesulfonamide]

Source: patent publication US20240101510A1, “APYRASE INHIBITORS” (Texas Crop Science, priority 2022, published 2024)
